Source: patent US20180273528A1 (LES LABORATOIRES SERVIER, priority 2015, published 2018)

Legend:
[1] = target: T1, His-TEV-DYRK1A Kinase domain (aa127-485) (Homo sapiens, UniProt Q13627); assay: Kinase ADP assay (ADP Hunter), DYRK1A kinase domain; format: biochemical; conditions: 20 μM ATP
T1 construct: His-TEV-DYRK1A Kinase domain (aa127-485); His tag (N); TEV protease cleavage site (N)
Description: The enzyme reaction was conducted in assay buffer (pH 7.4), containing 15 mM Hepes; 20 mM NaCl; 1 mM EGTA; 10 mM MgCl2; 0.02% Tween20 and 0.1 mg/ml Bovine-y-globulin. Test compounds of the invention were added in reaction buffer in a range of concentrations for 10 minutes at 30° C. in the presence of 20 nM DYRK1A enzyme, 40 μM peptide substrate and 20 μM ATP. Detection reagents (DiscoveRx 90-0083), ADP Hunter Plus Reagent A and then ADP Hunter Plus Reagent B were added. After a following 20 minutes incubation at 30° C., ADP Hunter Plus Stop Solution was added. The fluorescence intensity was measured at 590 nm.

[2] = target: DYRK1A (Homo sapiens, UniProt Q13627); assay: Cellular DYRK1 autophosphorylation assay in U2-OS cells; format: cell-based; design: full-length, wild-type human DYRK1A (NM_001396) with an HA tag; expressed in transfected cells; host or cells: human U2-OS osteosarcoma cells, transient transfection of a pcDNA3.1 plasmid; conditions: U2-OS cells transfected with HA-tagged human DYRK1A, 5 hours exposure; read-out: IC50 (μM) P-Ser520-Dyrk1A -Cell assay
Description: On day 2, cells were exposed to a range of concentrations of the test compounds of the invention for 5 hours. […] The relative levels of phospho-Ser520-DYRK1A were assayed using either western blotting or the Mesoscale ELISA platform. For analysis by western blot, lysates were diluted into Laemmli sample buffer (Bio-Rad) containing 5% v/v β-mercaptoethanol, heated for 5 min at 95° C., and resolved on Tris-glycine gels or NuPage Bis-Tris gels (Novex; Invitrogen). Biotinylated molecular weight standards (Cell Signaling Technology) were included in all gels. Proteins were transferred to nitrocellulose membranes (Hybond, ECL; Amersham), which were blocked in Tris-buffered saline/0.1% tween 20 (TBST) containing 5% milk, and probed at 4° C. overnight with anti-phospho-Ser520-DYRK1A antibody (Eurogentec SE6974-75; 0.23 μg/ml in 5% BSA) or anti DYRK1A antibody (Abnova H00001859; 0.5 μg/ml in 5% milk). Peroxidase-conjugated secondary antibodies were diluted into 5% milk and applied to membranes for 1 h at 20° C. Chemiluminescence detection was performed using the ECL plus western blotting detection kit (Amersham) and was recorded on ECL plus hyperfilm (Amersham). Blots were scanned using the Bio-Rad GS-800 calibrated densitometer and quantitative analysis of western blots was performed using TotalLab software (Amersham). IC50 values for inhibition of phospho-Ser520-DYRK1A were calculated from dose-response curves plotting the ratio between phospho-Ser520-DYRK1A and total DYRK1A signals at each concentration. […] Anti-phospho-Ser520-DYRK1A antibody (Eurogentec SE6974-75; […]) and anti DYRK1A antibody (Abnova H00001859; 3 μg/ml) was then added for 1 hour at RT, followed by addition of Sulfa-TAG anti-rabbit detection antibody (ref MSD R32AB; 1 μg/ml) and Sulfa-TAG anti-mouse detection antibody (ref MSD R32-AC-1; 1 μg/ml). After a further 1 hour, Read Buffer was added and plates were read on the Sector Imager 2400 (Mesoscale). IC50 values for inhibition of phospho-Ser520-DYRK1A were calculated from dose-response curves.

| Compound | IC50 [1] [µM] | IC50 [2] [µM] |
| --- | --- | --- |
| Cc1nc2ccc(-c3cc(N)nc(N)c3)nc2n1[C@@H]1C[C@@H]1Cc1ccccc1 (single isomer, unassigned) [Example 140] | 0.007 | 0.024 |
| COc1ccccc1O[C@@H](C)Cn1c(C)nc2ccc(-c3cc(N)nc(N)c3)nc21 (single isomer, unassigned) [Example 141] | 0.01 | 0.191 |
| Cc1nc2ccc(-c3cc(N)nc(N)c3)nc2n1CCc1ccc2c(c1)OCCO2 [Example 77, 4-{3-[2-(2,3-dihydro-1,4-benzodioxin-6-yl)ethyl]-2-methyl-3H-imidazo[4,5-b]pyridin-5-yl}pyridine-2,6-diamine] | 0.008 | 0.077 |
| Cc1nc2ccc(-c3cc(N)nc(N)c3)nc2n1CCc1ccccc1 [Example 83, 4-[2-methyl-3-(2-phenylethyl)-3H-imidazo[4,5-b]pyridin-5-yl]pyridine-2,6-diamine] | 0.007 | 0.037 |
| Cc1nc2ccc(-c3cc(N)nc(N)c3)nc2n1Cc1ccnc(F)c1 [Example 84, 4-{3-[(2-fluoropyridin-4-yl)methyl]-2-methyl-3H-imidazo[4,5-b]pyridin-5-yl}pyridine-2,6-diamine] | 0.019 | 0.113 |
| Cc1nc2ccc(-c3cc(N)nc(N)c3)nc2n1CCC1CCCO1 (stereo not drawn) [Example 85, 4-{2-methyl-3-[2-(tetrahydrofuran-2-yl)ethyl]-3H-imidazo[4,5-b]pyridin-5-yl}pyridine-2,6-diamine] | 0.016 | 0.143 |
| Cc1nc2ccc(-c3cc(N)nc(N)c3)nc2n1CC1CC1C (stereo not drawn) [Example 86, 4-{2-methyl-3-[(2-methylcyclopropyl)methyl]-3H-imidazo[4,5-b]pyridin-5-yl}pyridine-2,6-diamine] | 0.019 | 0.151 |
| CCC1(Cn2c(C)nc3ccc(-c4cc(N)nc(N)c4)nc32)CC1 [Example 88, 4-{3-[(1-ethylcyclopropyl)methyl]-2-methyl-3H-imidazo[4,5-b]pyridin-5-yl}pyridine-2,6-diamine] | 0.012 | 0.103 |
| COc1cccc2c1CCC(n1c(C)nc3ccc(-c4cc(N)nc(N)c4)nc31)C2 (stereo not drawn) [Example 93, 4-[3-(5-methoxy-1,2,3,4-tetrahydronaphthalen-2-yl)-2-methyl-3H-imidazo[4,5-b]pyridin-5-yl]pyridine-2,6-diamine] | 0.007 | 0.107 |
| Cc1nc2ccc(-c3cc(N)nc(N)c3)nc2n1CC1CC1(C)C (stereo not drawn) [Example 99, 4-{3-[(2,2-dimethylcyclopropyl)methyl]-2-methyl-3H-imidazo[4,5-b]pyridin-5-yl}pyridine-2,6-diamine] | 0.016 | 0.104 |
| Cc1nc2ccc(-c3cc(N)nc(N)c3)nc2n1CC(C)(C)Oc1ccccc1 [Example 116, 4-[2-methyl-3-(2-methyl-2-phenoxypropyl)-3H-imidazo[4,5-b]pyridin-5-yl]pyridine-2,6-diamine] | 0.056 | 0.267 |
| Cc1cccc(O[C@@H](C)Cn2c(C)nc3ccc(-c4cc(N)nc(N)c4)nc32)c1 [Example 127, 4-{2-methyl-3-[(2S)-2-(3-methylphenoxy)propyl]0.3H-imidazo[4,5-b]pyridin-5-yl}pyridine-2,6-diamine] | 0.015 | 0.089 |
| Cc1nc2ccc(-c3cc(N)nc(N)c3)nc2n1CCCOc1ccccc1 [Example 143, 4-[2-methyl-3-(3-phenoxypropyl)-3H-imidazo[4,5-b]pyridin-5-yl]pyridine-2,6-diamine] | 0.013 | 0.037 |
| Cc1nc2ccc(-c3cc(N)nc(N)c3)nc2n1CCOc1ccc(Cl)cn1 [Example 164, 4-(3-{2-[(5-chloropyridin-2-yl)oxy]ethyl}-2-methyl-3H-imidazo[4,5-b]pyridin-5-yl)pyridine-2,6-diamine] | 0.032 | 0.152 |
| Cc1nc2ccc(-c3cc(N)nc(N)c3)nc2n1CCOc1ncccc1Cl [Example 166, 4-(3-{2-[(3-chloropyridin-2-yl)oxy]ethyl}-2-methyl-3H-imidazo[4,5-b]pyridin-5-yl)pyridine-2,6-diamine] | 0.085 | 0.25 |
| Cc1nc2ccc(-c3cc(N)nc(N)c3)nc2n1CCOc1cccc(F)n1 [Example 167, 4-(3-{2-[(6-fluoropyridin-2-yl)oxy]ethyl}-2-methyl-3H-imidazo[4,5-b]pyridin-5-yl)pyridine-2,6-diamine] | 0.011 | 0.011 |
| Cc1nc2ccc(-c3cc(N)nc(N)c3)nc2n1CCOc1ccc(Br)cn1 [Example 170, 4-(3-{2-[(5-bromopyridin-2-yl)oxy]ethyl}-2-methyl-3H-imidazo[4,5-b]pyridin-5-yl)pyridine-2,6-diamine] | 0.035 | 0.131 |
| Cc1nc2ccc(-c3cc(N)nc(N)c3)nc2n1CCOc1ccc(F)cn1 [Example 171, 4-(3-{2-[(5-fluoropyridin-2-yl)oxy]ethyl}-2-methyl-3H-imidazo[4,5-b]pyridin-5-yl)pyridine-2,6-diamine] | 0.018 | 0.109 |

Now from value to molecule:

| IC50 [1] [µM] | IC50 [2] [µM] | Compound |
| --- | --- | --- |
| 0.093 | 0.223 | Cc1nc2ccc(-c3cc(N)nc(N)c3)nc2n1C[C@H](C)Oc1cccc(Cl)n1 (single isomer, unassigned) [Example 176] |
| 0.023 | 0.237 | Cc1nc2ccc(-c3cc(N)nc(N)c3)nc2n1C[C@@H](C)Oc1ccc(F)cn1 (single isomer, unassigned) [Example 179] |
| 0.026 | 0.175 | Cc1nc2ccc(-c3cc(N)nc(N)c3)nc2n1C[C@H](C)Oc1ncccc1Br (single isomer, unassigned) [Example 182] |
| 0.065 | 0.181 | Cc1nc2ccc(-c3cc(N)nc(N)c3)nc2n1C[C@H](C)Oc1cccc(F)n1 (single isomer, unassigned) [Example 188] |
| 0.032 | 0.148 | Cc1nc2ccc(-c3cc(N)nc(N)c3)nc2n1C[C@H](C)Oc1ncccc1Cl (single isomer, unassigned) [Example 190] |
| 0.007 | 0.092 | Cc1nc2ccc(-c3cc(N)nc(N)c3)nc2n1CCOc1cccc(CF)n1 [Example 172, 4-[3-(2-{[6-(fluoromethyl)pyridin-2-yl]oxy}ethyl)-2-methyl-3H-imidazo[4,5-b]pyridin-5-yl]pyridine-2,6-diamine] |
| 0.007 | 0.017 | Cc1nc2ccc(-c3cc(N)nc(N)c3)nc2n1CCOc1cccc(C(F)F)n1 [Example 173, 4-[3-(2-{[6-(difluoromethyl)pyridin-2-yl]oxy}ethyl)-2-methyl-3H-imidazo[4,5-b]pyridin-5-yl]pyridine-2,6-diamine] |
| 0.007 | 0.02 | Cc1nc2ccc(-c3cc(N)nc(N)c3)nc2n1CCOc1cccc(C(F)(F)F)n1 [Example 194, 4-[2-methyl-3-(2-{[6-(trifluoromethyl)pyridin-2-yl]oxy}ethyl)-3H-imidazo[4,5-b]pyridin-5-yl]pyridine-2,6-diamine] |
| 0.013 | 0.106 | Cc1cccc(OCCn2c(C)nc3ccc(-c4cc(N)nc(N)c4)nc32)n1 [Example 195, 4-(2-methyl-3-{2-[(6-methylpyridin-2-yl)oxy]ethyl}-3H-imidazo[4,5-b]pyridin-5-yl)pyridine-2,6-diamine] |
